# Measured values from US20250154686A1, “COMPOUND LIBRARY” (CHUGAI SEIYAKU KABUSHIKI KAISHA, priority 2021, published 2025).
# Target: T1, Bcl-2 protein (Recombinant Human Bcl-2 Protein) (Homo sapiens, UniProt P10415)
# T1 construct: purchased Novus Biologicals NBP2-34889
# Assay: AS-MS evaluation of binding of the Example 4 mixture library (1200 compounds/well) to Bcl-2, ASMS ratio (%)
# Conditions: for ASMS ratio (%) n = 1: replicate n = 1; for ASMS ratio (%) n = 2: replicate n = 2
# Experimental: DMSO solutions (prepared into approximately 0.58 mM based on calculation from the average molecular weight of each mixture) of 12 types of mixtures that could each contain 100 compounds, i.e., mixAI-B4J-01, mixAI-B1M-01, mixAI-B1K-01, mixAI-BIO-01, mixAI-B1A-01, mixAI-B3A-01, mixAI-B21-01, mixAI-B2L-01, mixAI-B2N-01, mixAI-B2A-01, mixAI-B2Q-01, and mixAI-B2R-01, shown in Table AI-03-B4J-01, Table AI-03-B1M-01, Table AI-03-B1K-01, Table AI-03-B10-01, Table AI-03-B1A-01, Table AI-03-B3A-01, Table AI-03-B21-01, Table AI-03-B2L-01, Table AI-03-B2N-01, Table AI-03-B2A-01, Table AI-03-B2Q-01, and Table AI-03-B2R-01 described in Example 4, were respectively dispensed to a total of 12 wells of MICROPLATE, 96-well, PP, V-BOTTOM (Greiner Bio-One International GmbH, 651201). 70 nL each from the 12 wells was collected into any one well using LABCYTE ECHO® 555 acoustic dispensing system (Beckman Coulter, Inc.) to prepare a sample solution in a mixed state of 1200 compounds (the presence of 1152 compounds was already identified when the mixtures were prepared in Example 4). Further, Bcl-2 protein (Novus Biologicals, NBP2-34889, Recombinant Human Bcl-2 Protein, Lot E60145051) (19.2 μL) prepared at 20.9 μM in advance using a Tris-HCl buffer (25 mM Tris-HCl, pH 7.4, 150 mM NaCl, 0.025% Tween-20, and 1 mM DTT) was added to the well containing the dispensed 1200 compounds (the presence of 1152 compounds was already identified when the mixtures were prepared in Example 4) (final compound concentration: 20 nM, final Bcl-2 concentration: 20 μM), and the plate was incubated at 23° C. for 1 hour in the dark. Subsequently, 200 μL of an assay buffer (25 mM Tris-HCl, pH 7.4, 150 mM NaCl, 0.025% Tween-20, and 1 mM DTT) was centrifuged three times at 2000×G at 4° C. for 2 minutes using 96-well MacroSpin column, P-2 Material (Harvard Bioscience, Inc., 74-5655) that had been allowed to swell to condition the 96-well MacroSpin column. Subsequently, 20 μL of the sample thus incubated was added to the 96-well MacroSpin column, P-2 Material after the completion of conditioning, and SEC treatment was performed by centrifugation at 2000×G for 2 minutes. 32 μL of a 1:1 mixed solution of acetonitrile and methanol (LC/MS grade, FUJIFILM Wako Pure Chemical Corp.) was added to a flow-through liquid from SEC, and the mixture was centrifuged at 1800×G at 4° C. for 5 minutes. The supernatant was used as analysis sample ASMS (A). By a similar operation, a sample prepared at 1200 compounds/well and supplemented with only a Tris-HCl buffer containing no Bcl-2 protein was incubated under the same conditions as above, and the same organic solvent as above was added thereto without 96-well MacroSpin column treatment. A supernatant obtained by a centrifugation operation was used as STD (B). Next, by a similar operation, a sample prepared at 1200 compounds/well and supplemented with only a Tris-HCl buffer containing no Bcl-2 protein was incubated under the same conditions as above and treated with 96-well MacroSpin column in the same manner as above, and the same organic solvent as above was added thereto. A supernatant obtained by a centrifugation operation was used as BK (C). These samples were measured by reverse-phase LC/MS.
# Then, the samples A, B and C were analyzed for the 1200 compounds using TraceFinder 5.1 (Thermo Fisher Scientific Inc.) and CHANCE Software (in-house), and an ASMS ratio (%) was calculated according to the following expression.
# Although m/z of the MS peaks was confirmed down to four decimal places, 0 at the decimal level may be omitted in the description in Table AJ-01. For example, “587.0000” is also referred to as “587”, “587.1000” is also referred to as “587.1”, “587.1200” is also referred to as “587.12”, and “587.1230” is also referred to as “587.123”.
# [1] = AS-MS, mixture of 1200 compounds/well, Bcl-2 protein
# [2] = mixture library, value belongs to the MS peak assigned to the compound
# T1 sequence (P10415 whole entry): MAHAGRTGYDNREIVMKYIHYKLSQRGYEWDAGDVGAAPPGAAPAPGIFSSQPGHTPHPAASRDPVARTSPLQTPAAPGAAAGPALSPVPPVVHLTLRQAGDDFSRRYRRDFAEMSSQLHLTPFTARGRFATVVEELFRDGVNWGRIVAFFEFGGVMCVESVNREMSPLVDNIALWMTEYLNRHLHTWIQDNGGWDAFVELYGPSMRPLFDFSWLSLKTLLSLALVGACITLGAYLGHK
SMILES,ASMS ratio (%) n = 1 [1],ASMS ratio (%) n = 2 [1],ASMS ratio (%) n = 1 [2],ASMS ratio (%) n = 2 [2]
CCCNC(=O)c1ccc(N2CCN(C(=O)c3ccc(-c4cccc(OCC)c4)c(C)c3)CC2)cc1 [Compound B1M025-01],3.6%,−1.2%,,
CCCNC(=O)c1ccc(N2CCN(C(=O)c3ccc(-c4cncc(OCC)c4)c(C)c3)CC2)cc1 [Compound B1M026-01],0.9%,0.9%,,
CCCNC(=O)c1ccc(N2CCN(C(=O)c3ccc(-c4cccc(OCC)c4)c(F)c3)CC2)cc1 [Compound B1M027-01],1.0%,0.4%,,
CCCNC(=O)c1ccc(N2CCN(C(=O)c3ccc(-c4cncc(OCC)c4)c(F)c3)CC2)cc1 [Compound B1M028-01],0.0%,0.0%,,
CCCNC(=O)c1ccc(N2CCN(Cc3ccc(-c4cccc(OCC)c4)c4ccccc34)CC2)cc1 [Compound B1M065-01],0.2%,−6.4%,,
CCCNC(=O)c1ccc(N2CCN(Cc3cc(-c4cccc(OCC)c4)cs3)CC2)cc1 [Compound B1M067-01],−1.6%,−87.4%,,
CCCNC(=O)c1ccc(N2CCN(Cc3cc(-c4cncc(OCC)c4)cs3)CC2)cc1 [Compound B1M068-01],1.1%,0.0%,,
CCCNC(=O)c1ccc(N2CCN(Cc3ccc(-c4cccc(OCC)c4)c(C)c3)CC2)nn1 [Compound B1M073-01],0.4%,−0.5%,,
CCCNC(=O)c1ccc(N2CCN(Cc3ccc(-c4cncc(OCC)c4)c(C)c3)CC2)nn1 [Compound B1M074-01],−1.6%,0.9%,,
CCCNC(=O)c1ccc(N2CCN(Cc3ccc(-c4cccc(OCC)c4)c(F)c3)CC2)nn1 [Compound B1M077-01],−0.7%,3.1%,,
CCCNC(=O)c1ccc(N2CCN(Cc3ccc(-c4cncc(OCC)c4)c(F)c3)CC2)nn1 [Compound B1M078-01],0.0%,0.0%,,
CCCNC(=O)c1ccc(N2CCN(Cc3cc(-c4cccc(OCC)c4)cc(C(F)(F)F)c3)CC2)nn1 [Compound B1M087-01],3.8%,3.2%,,
CCCNC(=O)c1ccc(N2CCN(Cc3cc(-c4cncc(OCC)c4)cc(C(F)(F)F)c3)CC2)nn1 [Compound B1M088-01],0.0%,0.0%,,
CCCNC(=O)c1ccc(N2CCN(Cc3cc(-c4cccc(OCC)c4)cs3)CC2)nn1 [Compound B1M093-01],0.0%,0.0%,,
CCCNC(=O)c1ccc(N2CCN(Cc3cc(-c4cncc(OCC)c4)cs3)CC2)nn1 [Compound B1M094-01],−1.5%,−2.1%,,
CCCNC(=O)c1ccc(N2CCN(C(C)c3ccc(-c4cccc(OCC)c4)cc3)CC2)cc1 (stereo not drawn) [Compound B1M097-01],1.1%,0.3%,,
CCCNC(=O)c1ccc(N2CCN(C(C)c3ccc(-c4cncc(OCC)c4)cc3)CC2)cc1 (stereo not drawn) [Compound B1M098-01],0.9%,0.3%,,
"CCOc1cccc(-c2ccc(CN3CCN(c4ccc(C(=O)Nc5ccc(OC)cc5)nn4)CC3)c3ccccc23)c1 [Compound B1O091-01, 6-[4-[[4-(3-Ethoxyphenyl)naphthalen-1-yl]methyl]piperazin-1-yl]-N-(4-methoxyphenyl)pyridazine-3-carboxamide]",,−2.2%,,
CCOc1cccc(-c2cc(CN3CCN(c4ccc(C(=O)NS(=O)(=O)CC56CC7CC(CC(C7)C5)C6)nn4)CC3)cc(OC(F)(F)F)c2)c1 [Compound B2A089-01],,,10.5%,0.5%
"CCOc1cccc(-c2cc(C(=O)N3CCN(c4ccc(C(=O)NS(C)(=O)=O)cc4)CC3)cc(C(F)(F)F)c2)c1 [Compound B2I039-01, 4-[4-[3-(3-Ethoxyphenyl)-5-(trifluoromethyl)benzoyl]piperazin-1-yl]-N-methylsulfonylbenzamide]",,,0.0%,0.0%
"CCOc1cncc(-c2cc(C(=O)N3CCN(c4ccc(C(=O)NS(C)(=O)=O)cc4)CC3)cc(C(F)(F)F)c2)c1 [Compound B2I040-01, 4-[4-[3-(5-Ethoxypyridin-3-yl)-5-(trifluoromethyl)benzoyl]piperazin-1-yl]-N-methylsulfonylbenzamide]",,,0.0%,−2.7%
"CCOc1cccc(C#Cc2cc(C(=O)N3CCN(c4ccc(C(=O)NS(C)(=O)=O)cc4)CC3)cc(C(F)(F)F)c2)c1 [Compound B2I041-01, 4-[4-[3-[2-(3-Ethoxyphenyl)ethynyl]-5-(trifluoromethyl)benzoyl]piperazin-1-yl]-N-methylsulfonylbenzamide]",,,0.0%,0.0%
"CCOc1cncc(C#Cc2cc(C(=O)N3CCN(c4ccc(C(=O)NS(C)(=O)=O)cc4)CC3)cc(C(F)(F)F)c2)c1 [Compound B2I042-01, 4-[4-[3-[2-(5-Ethoxypyridin-3-yl)ethynyl]-5-(trifluoromethyl)benzoyl]piperazin-1-yl]-N-methylsulfonylbenzamide]",,,0.0%,0.0%
"CCOc1cccc(-c2cnn(-c3cc(C(=O)N4CCN(c5ccc(C(=O)NS(C)(=O)=O)cc5)CC4)cc(C(F)(F)F)c3)c2)c1 [Compound B2I043-01, 4-[4-[3-[4-(3-Ethoxyphenyl)pyrazol-1-yl]-5-(trifluoromethyl)benzoyl]piperazin-1-yl]-N-methylsulfonylbenzamide]",,,0.0%,0.0%
"CCOc1cncc(-c2cnn(-c3cc(C(=O)N4CCN(c5ccc(C(=O)NS(C)(=O)=O)cc5)CC4)cc(C(F)(F)F)c3)c2)c1 [Compound B2I044-01, 4-[4-[3-[4-(5-Ethoxypyridin-3-yl)pyrazol-1-yl]-5-(trifluoromethyl)benzoyl]piperazin-1-yl]-N-methylsulfonylbenzamide]",,,0.0%,0.0%
"CCOc1cccc(-c2ccccc2CN2CCN(c3ccc(C(=O)NS(C)(=O)=O)cc3)CC2)c1 [Compound B2I045-01, 4-[4-[[2-(3-Ethoxyphenyl)phenyl]methyl]piperazin-1-yl]-N-methylsulfonylbenzamide]",,,−0.3%,0.2%
